From ChEMBL document CHEMBL1821548, “Structure selectivity relationship studies of 17-cyclopropylmethyl-3,14β-dihydroxy-4,5α-epoxy-6β-[(4'-pyridyl)carboxamido]morphinan derivatives toward the development of the mu opioid receptor antagonists” (Bioorg Med Chem Lett, 2011) come the findings set out here.

The structures appear in SMILES notation.

Test [1] deals with T1, Mu-type opioid receptor (Homo sapiens, UniProt P35372). Put plainly: Agonist activity against mu opioid receptor expressed in CHO cells assessed as stimulation of [35S]-GTPgammaS binding relative to DAMGO. The test is classed as functional, cell-based. (Binding of GTPγS marks nucleotide exchange on a G protein.)
T1 sequence (P35372 whole entry): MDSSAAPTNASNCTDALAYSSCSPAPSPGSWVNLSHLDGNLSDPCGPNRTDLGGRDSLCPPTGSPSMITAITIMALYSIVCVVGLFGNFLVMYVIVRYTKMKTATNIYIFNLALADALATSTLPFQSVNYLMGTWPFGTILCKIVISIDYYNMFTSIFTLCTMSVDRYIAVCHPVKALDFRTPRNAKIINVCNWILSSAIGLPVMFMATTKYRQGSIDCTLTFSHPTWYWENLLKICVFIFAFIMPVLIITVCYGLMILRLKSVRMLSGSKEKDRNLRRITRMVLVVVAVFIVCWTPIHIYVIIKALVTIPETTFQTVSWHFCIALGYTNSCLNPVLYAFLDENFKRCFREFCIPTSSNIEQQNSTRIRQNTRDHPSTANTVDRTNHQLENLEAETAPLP
Test [2] deals with T1, Mu-type opioid receptor. Put plainly: Agonist activity against mu opioid receptor expressed in CHO cells assessed as stimulation of [35S]-GTPgammaS binding. It is filed as functional, cell-based.
Test [3] in a line: Selectivity ratio of Ki for kappa opioid receptor to Ki for mu opioid receptor.
Test [4] concerns the target Delta-type opioid receptor (Homo sapiens, UniProt P41143). Kind of test: Displacement of [3H]-NTI from delta opioid receptor expressed in CHO cells after 1 hr. The test is classed as cell-based. On the technique in general: Displacement assays read how much labelled ligand stays bound in the presence of the test substance.
Test [5] deals with T1, Mu-type opioid receptor. Put plainly: Displacement of [3H]naloxone from mu opioid receptor expressed in CHO cells after 1 hr. It is filed as cell-based.
A short description of test [6]: Selectivity ratio of Ki for delta opioid receptor to Ki for mu opioid receptor.
Test [7] addresses Kappa-type opioid receptor (Homo sapiens, UniProt P41145). Kind of test: Displacement of [3H]-norBNI from kappa opioid receptor expressed in CHO cells after 1 hr. The test is classed as cell-based.
Test [8] has as its target T1, Mu-type opioid receptor. The conditions noted are these: CHO; 100 nM.
Description: Agonist activity against mu opioid receptor expressed in CHO cells assessed as stimulation of [35S]-GTPgammaS binding at 100 nM relative to DAMGO

Chain of Delta-type opioid receptor (P41143 whole entry): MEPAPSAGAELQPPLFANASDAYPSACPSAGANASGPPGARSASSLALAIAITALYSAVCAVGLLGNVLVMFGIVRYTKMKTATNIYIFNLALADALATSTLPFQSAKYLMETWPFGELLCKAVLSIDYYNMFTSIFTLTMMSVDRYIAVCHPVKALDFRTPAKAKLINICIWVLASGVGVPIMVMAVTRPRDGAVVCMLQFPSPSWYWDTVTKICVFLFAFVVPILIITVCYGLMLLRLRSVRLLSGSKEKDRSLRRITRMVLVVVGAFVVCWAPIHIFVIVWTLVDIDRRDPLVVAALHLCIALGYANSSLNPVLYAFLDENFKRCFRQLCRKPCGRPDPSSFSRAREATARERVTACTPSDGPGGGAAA
Chain of Kappa-type opioid receptor (P41145 whole entry): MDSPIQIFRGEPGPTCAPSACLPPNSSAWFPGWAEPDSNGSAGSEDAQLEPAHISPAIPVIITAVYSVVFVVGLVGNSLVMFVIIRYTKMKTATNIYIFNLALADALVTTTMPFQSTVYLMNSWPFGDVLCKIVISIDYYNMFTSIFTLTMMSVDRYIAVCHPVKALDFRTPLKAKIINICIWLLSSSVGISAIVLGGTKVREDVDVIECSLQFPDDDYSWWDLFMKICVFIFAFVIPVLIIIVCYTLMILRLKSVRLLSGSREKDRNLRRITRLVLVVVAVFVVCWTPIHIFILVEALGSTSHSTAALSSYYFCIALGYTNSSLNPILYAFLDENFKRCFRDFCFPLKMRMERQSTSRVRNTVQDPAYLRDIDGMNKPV

Consider `CN1CCC(C(=O)N[C@@H]2CC[C@@]3(O)[C@H]4Cc5ccc(O)c6c5[C@@]3(CCN4CC3CC3)[C@H]2O6)CC1`, for which the Emax (as a rule, the greatest response seen or fitted, relative to the assay's reference) in test [1] is 37.2%. Further, the 50% effective concentration (EC50) (in general, the concentration at which the effect is half-maximal) in test [2] is 5.08 nM. Moreover, the Ratio Ki in test [3] worked out at 7.5; in test [6], 2970. Moreover, the Ki (usually a measure of affinity in units of concentration, obtained from inhibition or displacement) was 2590 nM in test [4], 0.87 nM in test [5] and 6.49 nM in test [7].
Turning to `O=C(N[C@@H]1CC[C@@]2(O)[C@H]3Cc4ccc(O)c5c4[C@@]2(CCN3CC2CC2)[C@H]1O5)c1ccnc(Cl)c1`, the Emax in test [1] came out at 58.2%. Further, the EC50 in test [2] amounted to 0.83 nM. Also, the results for the Ratio Ki in test [3] and in test [6] were 1.5 and 6110, respectively. In addition, the inhibitory constant (Ki) in test [4] stood at 602 nM; in test [5], 0.1 nM; in test [7], 0.15 nM.
As to `O=C(N[C@@H]1CC[C@@]2(O)[C@H]3Cc4ccc(O)c5c4[C@@]2(CCN3CC2CC2)[C@H]1O5)c1ccncc1Br`, in test [1], the Emax was found to be 23.2%. For the same compound, the EC50 in test [2] was 1.31 nM. In addition, the results for the Ratio Ki in test [3] and in test [6] were 6.3 and 285, respectively. The inhibition constant (Ki) in test [4] was determined as 128 nM; in test [5], 0.45 nM; in test [7] it was 2.83 nM.
`O=C(Cc1ccncc1)N[C@@H]1CC[C@@]2(O)[C@H]3Cc4ccc(O)c5c4[C@@]2(CCN3CC2CC2)[C@H]1O5`: the Emax in test [1] came to 32.8%. The EC50 in test [2] worked out at 2.32 nM. For the same compound, the Ratio Ki in test [3] was 10.6; in test [6], 1020. Further, the inhibition constant (Ki) in test [4] turned out to be 866 nM; in test [5], 0.85 nM; in test [7], 9.01 nM.
Turning to `Cc1cc(C(=O)N[C@@H]2CC[C@@]3(O)[C@H]4Cc5ccc(O)c6c5[C@@]3(CCN4CC3CC3)[C@H]2O6)ccn1`, the Emax in test [1] turned out to be 43.3%. Also, the EC50 in test [2] was 1.13 nM. Also, the results for the Ratio Ki in test [3] and in test [6] were 1.5 and 232, respectively. Further, the inhibition constant (Ki) in test [4] is 90.1 nM; in test [5], 0.39 nM; in test [7], 0.58 nM.
In the case of `C[C@@H](O)[C@H](NC(=O)[C@H]1NC(=O)[C@H]([C@@H](C)O)NC(=O)[C@H](CCCNC(=N)N)NC(=O)[C@@H](Cc2c[nH]c3ccccc23)NC(=O)[C@H](Cc2ccc(O)cc2)NC(=O)[C@@H](NC(=O)[C@H]2Cc3ccccc3CN2)CSSC1(C)C)C(N)=O`, the Emax in test [8] was determined as 1.99%.
Turning to `O=C(CNC(=O)c1ccncc1)N[C@@H]1CC[C@@]2(O)[C@H]3Cc4ccc(O)c5c4[C@@]2(CCN3CC2CC2)[C@H]1O5`, the maximal response (Emax) in test [1] was 22.6%. For the same compound, the EC50 in test [2] came out at 2.84 nM. The inhibition constant (Ki) amounted to 526 nM in test [4], 0.73 nM in test [5] and 203 nM in test [7].
Turning to `O=C(CCc1ccncc1)N[C@@H]1CC[C@@]2(O)[C@H]3Cc4ccc(O)c5c4[C@@]2(CCN3CC2CC2)[C@H]1O5`, the Emax in test [1] was 22.6%. Moreover, the EC50 in test [2] was 1.46 nM. The Ratio Ki was 2.9 in test [3] and 516 in test [6]. For the same compound, the inhibition constant (Ki) in test [4] was 294 nM; in test [5], 0.57 nM; in test [7], 1.65 nM.
As to `O=C(N[C@@H]1CC[C@@]2(O)[C@H]3Cc4ccc(O)c5c4[C@@]2(CCN3CC2CC2)[C@H]1O5)c1ccncc1Cl`, in test [1], the maximal effect (Emax) was 24.9%. In addition, in test [2], the EC50 stood at 2.32 nM. Besides, the Ratio Ki in test [3] came out at 29.6; in test [6], 746. Further, the Ki in test [4] amounted to 502 nM; in test [5] it was 0.67 nM; in test [7], 19.9 nM.
Regarding `Cc1cnccc1C(=O)N[C@@H]1CC[C@@]2(O)[C@H]3Cc4ccc(O)c5c4[C@@]2(CCN3CC2CC2)[C@H]1O5`, in test [1], the Emax turned out to be 30.6%. In addition, the EC50 in test [2] is 1.52 nM. In addition, the Ratio Ki in test [3] came out at 166; in test [6], 470. In addition, the Ki came to 274 nM in test [4], 0.58 nM in test [5] and 96.7 nM in test [7].
As for `O=C(N[C@@H]1CC[C@@]2(O)[C@H]3Cc4ccc(O)c5c4[C@@]2(CCN3CC2CC2)[C@H]1O5)c1ccnc(Br)c1`, in test [1], the Emax was 50.8%. Also, in test [2], the concentration giving a half-maximal response (EC50) came out at 1.19 nM. Besides, the Ratio Ki was 0.3 in test [3] and 276 in test [6]. Further, the inhibitory constant (Ki) in test [4] was 174 nM; in test [5], 0.63 nM; in test [7], 0.18 nM.
